Common to all, as to assay type: cell-based
Assay [1] concerns Bacillus subtilis PCI 219. Put plainly: MIC, antibacterial spectrum (aerobic bacteria). Conditions: PCI219; Bacillus subtilis PCI 219, Gram +, 10^6 cells/ml, aerobic; read-out: MIC.
The test system of assay [2] is S. aureus IID 670 (Terajima). Put plainly: MIC, antibacterial spectrum (aerobic bacteria). Conditions: Staphylococcus aureus, IID670; S. aureus IID 670 (Terajima), Gram +, 10^6 cells/ml, aerobic; read-out: MIC.
The test system of assay [3] is E. coli ML 4707. Nature of the assay: MIC, antibacterial spectrum (aerobic bacteria). The following applies: Escherichia coli, ML4707; E. coli ML 4707, Gram -, 10^6 cells/ml, aerobic; read-out: MIC.
For assay [4], the system named is Enterobacter cloacae IID 977. Put plainly: MIC, antibacterial spectrum (aerobic bacteria). Conditions: IID977.
For assay [5], the system named is K. pneumoniae 1-220S. Nature of the assay: MIC, antibacterial spectrum (aerobic bacteria). Conditions: Klebsiella pneumoniae, 1220S; K. pneumoniae 1-220S, Gram -, 10^6 cells/ml, aerobic; read-out: MIC.
Assay [6] deals with P. aeruginosa IID 1210. Put plainly: MIC, antibacterial spectrum (aerobic bacteria). The following applies: Pseudomonas aeruginosa, IID1210; P. aeruginosa IID 1210, Gram -, 10^6 cells/ml, aerobic; read-out: MIC.
Assay [7] concerns P. cepacia GIFU 518. Put plainly: MIC, antibacterial spectrum (aerobic bacteria). Conditions: Burkholderia cepacia, GIFU518; P. cepacia GIFU 518, Gram -, 10^6 cells/ml, aerobic; read-out: MIC.
The subject of assay [8] is P. maltophilia GIFU 2491. Nature of the assay: MIC, antibacterial spectrum (aerobic bacteria). Conditions: Stenotrophomonas maltophilia, GIFU2491; P. maltophilia GIFU 2491, Gram -, 10^6 cells/ml, aerobic; read-out: MIC.
Assay [9] deals with Acinetobacter anitratus IID 876. Nature of the assay: MIC, antibacterial spectrum (aerobic bacteria). The following applies: Acinetobacter calcoaceticus, IID876; Acinetobacter anitratus IID 876, Gram -, 10^6 cells/ml, aerobic; read-out: MIC.
In assay [10] the test system is B. fragilis 25285. Put plainly: MIC, antibacterial spectrum (anaerobic bacteria). The following applies: Bacteroides fragilis; B. fragilis 25285, Gram -, 10^6 cells/ml, anaerobic; read-out: MIC.
The subject of assay [11] is B. distasonis 8503. Put plainly: MIC, antibacterial spectrum (anaerobic bacteria). Conditions: Parabacteroides distasonis; B. distasonis 8503, Gram -, 10^6 cells/ml, anaerobic; read-out: MIC.
Assay [12] deals with Fusobacterium necrophorum S-45. Nature of the assay: MIC, antibacterial spectrum (anaerobic bacteria). The following applies: S45; Fusobacterium necrophorum S-45, Gram -, 10^6 cells/ml, anaerobic; read-out: MIC.
Assay [13] has as its system Eubacterium lentum GAI 5242. Nature of the assay: MIC, antibacterial spectrum (anaerobic bacteria). The following applies: Eggerthella lenta, GAI5242; Eubacterium lentum GAI 5242, Gram +, 10^6 cells/ml, anaerobic; read-out: MIC.
Assay [14] deals with Propionibacterium acens 11828. Nature of the assay: MIC, antibacterial spectrum (anaerobic bacteria). Conditions: Propionibacterium acens 11828, Gram +, 10^6 cells/ml, anaerobic; read-out: MIC.
The test system of assay [15] is Clostridium difficile I-E. Put plainly: MIC, antibacterial spectrum (anaerobic bacteria). The following applies: Clostridioides difficile, Gram +, 10^6 cells/ml.
Assay [16] deals with C. perfringens KYA 13123. Put plainly: microbe, parasite or virus in culture. Conditions: Clostridium perfringens, KYA13123.
The subject of assay [17] is C. ramosum. Nature of the assay: MIC, antibacterial spectrum (anaerobic bacteria). The following applies: Thomasclavelia ramosa; C. ramosum, Gram +, 10^6 cells/ml, anaerobic; read-out: MIC.
In assay [18] the test system is Pst. micros UPI 5464-1. Nature of the assay: MIC, antibacterial spectrum (anaerobic bacteria). The following applies: Parvimonas micra, UPI54641, Pst. micros UPI 5464-1, Gram +, 10^6 cells/ml.
For assay [19], the system named is P. cepacia KY 84. Put plainly: MIC, antibacterial spectrum (aerobic bacteria). Conditions: Burkholderia cepacia, KY84, P. cepacia KY 84, Gram -, 10^6 cells/ml.
[20] abbreviates: Enterobacter cloacae IID 977, Gram -, 10^6 cells/ml, aerobic, read-out: MIC.

In brackets after ≈: the same amount, converted by molar mass. Counter-ions that a name gives are not always drawn. Like-named read-outs stand apart in the source and are kept apart here.

With `O=C(O)c1cn(C2CC2)c2c(Cl)c(N3CCC(CNCCO)C3)c(F)cc2c1=O` (stereo not shown) [Exp. 3, 8-Chloro-1-cyclopropyl-6-fluoro-1,4-dihydro-7-(3-(2-hydroxyethylaminomethyl)-1-pyrrolidinyl]-4-oxo-3-quinolinecarboxylic acid], the MIC in assay [1] was 0.0125 mg/L (≈ 0.0295 µM); in assay [2], 0.025 mg/L (≈ 0.059 µM); in assay [3], 0.05 mg/L (≈ 0.118 µM); in assay [4] (setting [20]) it was 0.1 mg/L (≈ 0.236 µM); in assay [5], 0.1 mg/L (≈ 0.236 µM); in [6] it was 1.56 mg/L (≈ 3.68 µM). The MIC in assay [7] was 1.56 mg/L (≈ 3.68 µM); in assay [8], 0.2 mg/L (≈ 0.472 µM); in assay [9], 0.1 mg/L (≈ 0.236 µM); in assay [10], 0.2 mg/L (≈ 0.472 µM); in [11], 0.78 mg/L (≈ 1.84 µM); in [12] it was 0.1 mg/L (≈ 0.236 µM). Besides, the MIC came out at 0.2 mg/L (≈ 0.472 µM) in assay [13]; 0.78 mg/L (≈ 1.84 µM) in assay [14]; 0.2 mg/L (≈ 0.472 µM) in [15]; 0.05 mg/L (≈ 0.118 µM) in [16]; 0.39 mg/L (≈ 0.92 µM) in [17]; 0.1 mg/L (≈ 0.236 µM) in assay [18].

Consider `O=C(O)c1cn(C2CC2)c2cc(N3CCC(CNCCO)C3)c(F)cc2c1=O` (stereo not drawn) [Exp. 2, l-Cyclopropyl-6-fluoro-l,4-dihydro-7-[3-(2-hydroxyethylaminomethyl)-l-pyrrolidinyl]-4-oxo-3-quinolinecarboxylic acid hydrochloride], for which the MIC was no more than 0.05 mg/L in [1]; 0.2 mg/L in [2]; 0.2 mg/L in assay [3]; 1.56 mg/L in assay [4] (Enterobacter cloacae); 0.78 mg/L in assay [5]; 6.25 mg/L in [6]. Further, the MIC in [9] was 3.13 mg/L; in assay [10] it was 50 mg/L; in assay [12] it was 0.78 mg/L; in assay [13], 3.13 mg/L; in assay [14], 3.13 mg/L; in assay [15], 25 mg/L. The MIC in [16] stood at 1.56 mg/L; in [17], 25 mg/L; in assay [18] it was 3.13 mg/L.

Regarding `O=C(O)c1cn(C2CC2)c2c(F)c(N3CCC(CNCCO)C3)c(F)cc2c1=O` (stereo not shown) [Exp. 1, 1-Cyclopropyl-6,8-difluoro-1,4-dihydro-7-[3-(2-hydroxyethylaminomethyl)-1-pyrrolidinyl]-4-oxo-3-quinolinecarboxylic acid], the MIC in [1] came to 0.0125 mg/L (≈ 0.0307 µM); in assay [2], 0.05 mg/L (≈ 0.123 µM); in [3] it was 0.05 mg/L (≈ 0.123 µM); in assay [4] (setting [20]), 0.2 mg/L (≈ 0.491 µM); in assay [5], 0.2 mg/L (≈ 0.491 µM); in assay [6], 1.56 mg/L (≈ 3.83 µM). For the same compound, the MIC in assay [19] is 3.13 mg/L (≈ 7.68 µM); in assay [9], 0.2 mg/L (≈ 0.491 µM); in [10], 1.56 mg/L (≈ 3.83 µM); in assay [12], 0.2 mg/L (≈ 0.491 µM); in [13] it was 0.78 mg/L (≈ 1.91 µM); in assay [14], 0.78 mg/L (≈ 1.91 µM). Besides, the MIC was found to be 0.78 mg/L (≈ 1.91 µM) in assay [15], 0.2 mg/L (≈ 0.491 µM) in [16], 0.78 mg/L (≈ 1.91 µM) in assay [17] and 0.39 mg/L (≈ 0.957 µM) in assay [18].
